The record followed here is ChEMBL document CHEMBL6078681, “Discovery and Optimization of Dihydroquinolin-2(1H)-ones as Novel Highly Selective and Orally Bioavailable Phosphodiesterase 5 Inhibitors for the Treatment of Pulmonary Arterial Hypertension” (J Med Chem, 2024).

Molecules are shown by their SMILES.

Experiment [1] has as its target T1, cGMP-specific 3',5'-cyclic phosphodiesterase (Homo sapiens, UniProt O76074). Description: Inhibition of PDE5A (unknown origin) using […] as substrate incubated for 1 hr by fluorescence polarization assay.
Experiment [2] addresses T1, cGMP-specific 3',5'-cyclic phosphodiesterase. Description: Inhibition of PDE5A (unknown origin) using […] as substrate at 100 nM incubated for 1 hr by fluorescence polarization assay relative to control.
Experiment [3] shares this target. Briefly: Inhibition of PDE5A (unknown origin) using […] as substrate at 1000 nM incubated for 1 hr by fluorescence polarization assay relative to control. On the technique in general: Fluorescence polarisation rises when a labelled molecule tumbles more slowly, as on binding a larger partner.

The term IC50 denotes the point on the concentration scale where inhibition reaches its midpoint. High values mean lower potency, low ones higher potency. As to `Cc1ccc(-c2c(C#N)c(=O)n(Cc3ccccc3)c3c(NC(C)c4ccccc4)cccc23)cc1` (stereo not given), in experiment [1], the IC50 is 0.011 µM. In other words, the double-digit nanomolar range. `Cc1ccc(-c2c(C#N)c(=O)n(Cc3ccccc3)c3c(NCc4ccccn4)cccc23)cc1` yielded an IC50 in experiment [1] of 0.02 µM. What is called inhibition is the relative decrease from the control value, in per cent. A high value points to strong suppression. Take `COc1ccc(Cn2c(=O)c(C#N)c(-c3ccc(C)cc3)c3cccc(NC(C)c4ccccn4)c32)cc1Cl` (stereo not given): the inhibition in experiment [2] came out at 12%. `Cc1ccc(-c2c(C#N)c(=O)n(CC3CC3)c3c(NC(C)c4ccccn4)cccc23)cc1` (stereo not given) had an inhibition in experiment [3] of 35%. In experiment [1], `CCCCNc1cccc2c(-c3ccc(C)cc3)c(C#N)c(=O)n(Cc3ccccc3)c12` displayed an IC50 of 0.03 µM.

Take `Cc1ccc(-c2c(C#N)c(=O)n(Cc3ccncc3)c3c(N[C@H](C)c4ccccn4)cccc23)cc1`: the half-inhibitory concentration (IC50) in experiment [1] turned out to be 0.073 µM. In experiment [1], `CC(Nc1cccc2c(C3CCCCC3)c(C#N)c(=O)n(Cc3ccccc3)c12)c1ccccn1` (stereo not given) gave an IC50 of 0.034 µM. This IC50 lies about 2.1-fold lower than the previous one. With `COc1ccc(-c2c(C#N)c(=O)n(Cc3ccccc3)c3c(N[C@@H](C)c4ccccn4)cccc23)cc1`, the IC50 in experiment [1] is 0.008 µM.

Compound `Cc1ccc(-c2c(C#N)c(=O)n(Cc3ccccc3)c3ccc(NC(C)c4ccccn4)cc23)cc1` (stereo not given) registered an IC50 in experiment [1] of 0.291 µM. For the compound `CC(Nc1cccc2c(C3CCCC3)c(C#N)c(=O)n(Cc3ccccc3)c12)c1ccccn1` (stereo not given), the inhibition in experiment [2] was 14%.
